The test system of one assay is human RKIP promoter. To be noted: RWPE cells, DHT 5 nM, 10 nM, 24 h, compared to basal activity.
The test system of another assay is putative RKIP ARE. To be noted: RWPE nuclear extracts, 5 nM DHT, as early as 30 min. How it is done:
The reaction was allowed to proceed for 30 min at room temperature.

The subject of the next assay is RKIP mRNA expression. Kind of assay: RKIP mRNA expression in RWPE cells by real-time RT-PCR. The format is cell-based, human. In general terms: In qPCR the cycle at which signal appears reflects the starting amount.
Another assay relates to C4-2B cells. Nature of the assay: In vitro invasion assay with protein kinase inhibitors. Type of assay: cell-based, human. To be noted: in vitro invasion through matrix, C4-2B cells (FIG. 4). The method, then:
The invasiveness of control and sense or antisense-transfected cell clones was evaluated in 24-well transwell chambers (Costar, Cambridge, Mass.) as directed by the manufacturer. Briefly, the upper and lower culture compartments were separated by polycarbonate filters with 8-μm pore size. Some wells were coated with 100 μg/cm^2 collagen matrix (MATRIGEL, Collaborative Biomedical Products, Bedford, Mass.) that was reconstituted by adding 0.5 ml of serum-free T medium for 2 hours. […] Cell penetration through the membrane was quantified by staining the porous membrane with a Diff-Quik stain kit. The numbers of cells that penetrated through the membrane were counted in five microscopic fields (×200) per filter. Invasive ability was then determined as the proportion of cells that invaded through the matrix-coated membrane relative to the number of cells that migrated through the uncoated membrane (baseline migration). […]
Furthermore, because RKIP inhibits tumor invasiveness, it was investigated whether RKIP exerts its metastasis suppressor gene function through regulation of MEK activation. […] Accordingly, the effect of a variety of kinase inhibitors was evaluated, including a MEK inhibitor (PD098059) on in vitro invasion. […]

Another assay concerns RKIP mRNA levels. Kind of assay: RKIP mRNA levels in LNCaP cells by real time PCR. Type of assay: cell-based, human. Particulars: IL-6 50 ng/ml, 6 or 24 hours (FIG. 7). The method, then: LNCaP cells were plated in culture dishes and treated with IL-6 (50 ng/ml) or vehicle for 6 or 24 hours. Total RNA was collected and subjected to real time PCR for RKIP mRNA levels. RKIP mRNA levels were normalized to β-galactosidase mRNA levels.

Regarding `C[C@]12CCC(=O)C[C@@H]1CC[C@@H]1[C@@H]2CC[C@]2(C)[C@@H](O)CC[C@@H]12` [DHT, dihydrotestosterone], the “increase in luciferase activity of RKIP promoter plasmid” value with human RKIP promoter was “approximately 3 fold”. Further, the “DNA binding activity to RKIP ARE probe” value in the assay with putative RKIP ARE is recorded as “rapid increase in DNA binding activity”. Further, in the assay with RKIP mRNA expression, the “RKIP expression in cells treated with CHX” value is recorded as “increase in RKIP expression”, the “increase in RKIP mRNA at 1 nM” value is “significant (P<0.01) increase”, the “induction of RKIP expression at 0.1 nM” value is listed as “almost no induction” and the “maximum induction of RKIP mRNA expression” value was determined as 1.5 fold. The “induction of RKIP expression at saturating amounts (>=5 nM)” value in the assay with RKIP mRNA expression (RWPE cells, 24 h, >=5 nM DHT) was “significant (P<0.01) induction”. Moreover, the “RKIP mRNA expression versus DHT concentration” value in the assay on RKIP mRNA expression (RWPE cells, 24 h, various concentrations of DHT) was “dose-dependent increase”.

Take `COc1cccc(-c2cc(=O)c3ccccc3o2)c1N` [PD098059]: in the assay on C4-2B cells, the “decrease of invasive ability of C4-2B cells” value was 41%.

As to `CC(O)(CS(=O)(=O)c1ccc(F)cc1)C(=O)Nc1ccc(C#N)c(C(F)(F)F)c1` (stereo not drawn) [Casodex], the “effect on DHT induction of RKIP mRNA expression” value in the assay with RKIP mRNA expression (RWPE cells, 24 h, casodex in the presence of DHT (FIG. 12B)) is on record as “substantially reduced”.

Take IL-6: the cytokine interleukin-6: the “RKIP expression in LNCaP prostate cancer cells” value in the assay with RKIP mRNA levels was “reduces RKIP expression”.

On to `C[C@@H]1C[C@@H]([C@H](O)CC2CC(=O)NC(=O)C2)C(=O)[C@@H](C)C1` [CHX, cycloheximide], for which, in the assay with RKIP mRNA expression (RWPE cells, 24 h, CHX alone (FIG. 12C)), the “expression of RKIP, treatment alone” value is “did not change the expression of RKIP”.

The values above are taken from patent US7407763B2, “Systems and methods for detecting and regulating metastasis” (The Regents of the University of Michigan, priority 2004, dated 2008).
